The target of this assay is Human immunodeficiency virus type 1 protease (Human immunodeficiency virus 1, UniProt Q72874). Briefly: Tested for inhibitory activity against the recombinant HIV-1 protease.

A value given as a limit tells only on which side of the number the result lay.

Take `CC(C)(C)[C@H](NC(=O)OCc1ccccc1)C(=O)NC(Cc1ccccc1)C(=O)C(F)(F)C(=O)NCc1ccccc1` (stereo partly drawn): the IC50 was found to be 0.027 µM. On to `CON[C@H](C(=O)N[C@H](C(=O)NC(=O)C(F)(F)C(=O)[C@H](Cc1ccccc1)NC(=O)[C@H](C)NC(=O)[C@H](C)NC(=O)[C@H](CO)NC(=O)OC(C)(C)C)C(C)C)C(C)C`, for which the Ki is 160 µM. `CC(C)CC(NC(=O)OCc1ccccc1)C(=O)NC(Cc1ccccc1)C(=O)C(F)(F)C(=O)NCc1ccccc1` (stereo not drawn): the IC50 was found to be 750 µM. Turning to `CC(C)(C)OC(=O)NC(Cc1ccc(O)cc1)C(=O)C(F)(F)C(=O)NCc1ccccc1` (stereo not drawn), the Ki was determined as 0.0003 µM. As to `CC(C)C(NC(=O)OCc1ccccc1)C(=O)NC(Cc1ccccc1)C(O)C(F)(F)C(=O)NCc1ccccc1` (stereo not drawn), the IC50 was found to be 5000 µM. With `O=C(Cc1ccccc1)NCC(F)(F)C(=O)C(Cc1ccccc1)NC(=O)OCc1ccccc1` (stereo not drawn), the Ki was determined as 60000 µM. As for `CC(C)C(NC(=O)OCc1ccccc1)C(=O)NC(Cc1ccccc1)C(=O)C(F)(F)C(=O)CCc1ccccc1` (stereo not drawn), the IC50 came out at 0.1 µM.

Regarding `CN(Cc1ccccc1)C(=O)C(=O)C(=O)C(Cc1ccccc1)NC(=O)OCc1ccccc1` (stereo not drawn), the Ki amounted to 5000 µM. As to `O=C(NC(Cc1cccc2ccccc12)C(=O)C(F)(F)C(=O)NCc1ccccc1)OCc1ccccc1` (stereo not drawn), the Ki is above 1000 µM. Consider `NC(=O)C(F)(F)C(=O)C(Cc1ccccc1)NC(=O)OCc1ccccc1` (stereo not drawn), for which the IC50 was 300 µM. Turning to `CC(C)C(NC(=O)OCc1ccccc1)C(=O)NC(Cc1ccccc1)C(=O)C(F)(F)C(=O)NCc1ccccc1` (stereo not drawn), the Ki turned out to be 0.001 µM. On the same count and under the same terms, for `C[Si](C)(C)CC(NC(=O)OCc1ccccc1)C(=O)C(F)(F)C(=O)NCc1ccccc1` (stereo not drawn) the value was 12 µM. Consider `C[Si](C)(C)CNC(=O)C(F)(F)C(=O)C(Cc1ccccc1)NC(=O)OCc1ccccc1` (stereo not drawn), for which the Ki is 0.6 µM.

As for `O=C(NC(Cc1ccccc1)C(=O)C(F)(F)C(=O)NCc1ccccc1)OCc1ccccc1` (stereo not drawn), the Ki worked out at 0.0006 µM. Turning to `CC(C)(C)OC(=O)NC(Cc1ccccc1)C(=O)C(F)(F)C(=O)NCc1ccccc1` (stereo not drawn), the IC50 is 0.004 µM. Regarding `CC(C)(C)OC(=O)NC(C[Si](C)(C)C)C(=O)C(F)(F)C(=O)NCc1ccccc1` (stereo not drawn), the Ki is 2.5 µM. For the compound `CC(C)(C)CNC(=O)C(F)(F)C(=O)C(Cc1ccccc1)NC(=O)OCc1ccccc1` (stereo not drawn), the inhibition constant Ki was determined as 0.65 µM. Consider `CCC[C@H](NC(=O)OCc1ccccc1)C(=O)NC(Cc1ccccc1)C(=O)C(F)(F)C(=O)NCc1ccccc1` (stereo partly drawn), for which the Ki stood at 400 µM.

Values taken from ChEMBL document CHEMBL1159181, “Short and unexpectedly potent difluorostatone type inhibitors of HIV-1 protease” (Bioorg Med Chem Lett, 1993).
